From US9399631B2, “Polyphenol proteasome inhibitors, synthesis, and methods of use” (UNIVERSITY OF SOUTH FLORIDA, priority 2003, dated 2016)
Entries after “also recorded” stand apart in the source; their conditions may differ. Like-named read-outs stand apart in the source and are kept apart here.

Experiments:
LNCaP cells [1] = test: Western blot of proteasome target proteins in LNCaP cells; assay type: cell-based, human; conditions: 25 μM, up to 9 hours
Description: (§1) Cell Culture, Cell Extract Preparation, and Western Blot Assay. Human leukemia Jurkat T and prostate cancer LNCaP cells were cultured in RPMI 1640 medium supplemented with 10% fetal calf serum, 100 units/ml of penicillin, and 100 μg/ml streptomycin. Human immortalized, non-transformed NK cells (YT cell line) (38) were cultured in RPMI 1640 supplemented with 1 mM MEM sodium pyruvate solution, 0.1 mM MEM non-essential amino acids solution, 10% fetal calf serum. 100 units/ml penicillin, and 100 μg/ml streptomycin. Normal (WI-38) and simian virus 40 (SV40)-transformed (VA-13) human fibroblasts were grown in Dulbecco's modified Eagle's medium supplemented with 10% fetal calf serum, 100 units/ml of penicillin and 100 μg/ml of streptomycin. All cells were maintained at 37° C. in a humidified incubator with an atmosphere of 5% CO2. A whole cell extract was prepared in accordance with An et al. (An, B. et al. Cell Death Differ, 1998, 5:1062-75). Briefly, cells were harvested, washed with PBS twice, and homogenized in a lysis buffer [50 mM Tris-HCl (pH 8.0), 5 mM EDTA, 150 mM NaCl, 0.5% NP-40, 0.5 mM phenylmethylsulfonyl fluoride, and 0.5 mM dithiothreitol] for 30 min at 4° C. Afterwards, lysates were centrifuged at 12,000×g for 15 min at 4° C., and the supernatants were collected as whole cell extracts. Equal amounts of protein extract (60 μg) were resolved by SDS-polyacrylamide gel electrophoresis and transferred to a nitrocellulose membrane using a Semi-Dry Transfer system (BIO-RAD, Hercules, Calif.). Jurkat T, LNCaP, or DU-145 cells were treated with various concentrations of synthetic or natural tea polyphenols for indicted hours. The enhanced chemiluminescence (ECL) Western blot analysis was then performed using specific antibodies to the proteins of interest (p^27kip, IκB-α, PARP, Bax or actin). The ratio of p27 or IκB-α to the corresponding actin was determined by scanning intensities of the protein bands.
To investigate whether (−)-EGCG-amide and (+)-EGCG-amide inhibit intact tumor cell proteasome activity, human prostate cancer LNCaP cells were treated with 25 μM of (−)- or (+)-EGCG-amide for up to 9 hours, followed by measurement of p27, IκB-α and Bax, three well-known proteasome target proteins (Pagano, M. et al. Science, 1995, 269:682-685; An, B. et al. Cell Death Differ, 1998, 5:1062-75; Sun, J. et al. Cancer Res, 2001, 61:1280-1284; Palombella, V. J. et al. Cell, 1994, 78:773-785; Thompson, J. E. et al. Cell, 1995, 80:573-582; Perkins, N. D. Trends Biochem Sci, 2000, 25:434-440; Chang, Y. C. et al. Cell Growth Differ, 1998, 9:79-84; Li, B. and Dou, Q. P. Proc Natl Acad Sci USA, 2000, 97:3850-3855; Nam, S. et al. Cancer Epidemiol Biomarkers Prey, 2001, 10:1083-1088). In this experiment (−)-EGCG and (+)-EGCG were used as positive controls.
Having determined that the synthetic GTP-1 to −5 analogs are able to inhibit the proteasomal chymotrypsin-like activity in vitro (FIG. 8), these compounds were investigated for their potency in inhibiting intact tumor cellular proteasome activity. To do so, human prostate cancer LNCaP cells were treated with one of these compounds for the indicated hours, followed by measuring levels of proteasome target proteins, p27, IκB-α, and Bax, and polyubiquitinated proteins.

MCF-7 cells = test: Proteasome inhibition / p27 accumulation in MCF-7 cells; assay type: cell-based, human
[2] = biological target: T1, 20S eukaryotic proteasome (Oryctolagus cuniculus, UniProt G1T4Q9); test: Inhibition of chymotrypsin-like activity of purified eukaryotic 20S proteasome (Suc-Leu-Leu-Val-Tyr-AMC); assay type: biochemical, rabbit; conditions: chymotrypsin-like activity, rabbit 20S proteasome
T1 construct: purchased BOSTON BIOCHEM (Cambridge, Mass.)
T1 sequence (G1T4Q9 1-263): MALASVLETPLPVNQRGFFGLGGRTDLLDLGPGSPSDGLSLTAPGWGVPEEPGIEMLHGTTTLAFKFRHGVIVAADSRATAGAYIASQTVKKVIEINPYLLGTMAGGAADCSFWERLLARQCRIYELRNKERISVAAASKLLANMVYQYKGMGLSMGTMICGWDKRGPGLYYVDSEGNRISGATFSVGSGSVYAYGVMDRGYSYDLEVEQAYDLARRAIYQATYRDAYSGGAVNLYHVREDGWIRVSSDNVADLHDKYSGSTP
Description: Materials. Highly purified tea polyphenols (−)-EGCG (>95%), (−)-GCG (>98%), (−)-ECG (>98%), (−)-CG (>98%), fetal calf serum, propidium iodide, 3-[4,5-dimethylthiazol-2-yl]-2,5-diphenyltetrazolium bromide (MTT), RNase A, and DMSO were purchased from Sigma (St. Louis, Mo.). (+)-EGCG, benzyl-protected-(+)-EGCG, (+)-GCG, (−)-EGCG-amide, and (+)-EGCG-amide were prepared by enantioselective synthesis (see below). Purified 20S eukaryotic proteasome from rabbit was purchased from BOSTON BIOCHEM (Cambridge, Mass.). Purified 20S prokaryotic proteasome (Methanosarcina thermophile, Recombinant, E. coli) was purchased from CALBIOCHEM (La Jolla, Calif.). Fluorogenic peptide substrates Suc-Leu-Leu-Val-Tyr-AMC (for the proteasomal chymotrypsin-like activity) was obtained from Calbiochem (La Jolla, Calif.). RPMI 1640 medium, Dulbecco's modified Eagle's medium, MEM non-essential amino acids solution, MEM-sodium pyruvate solution, penicillin, and streptomycin were from INVITROGEN (Carlsbad, Calif.). Monoclonal antibody to p27^Kip was purchased from PHARMINGEN (San Diego, Calif.); polyclonal antibodies to IκB-α, Bax and actin, and monoclonal antibody to ubiquitin were from SANTA CRUZ Biotechnology Inc. (Santa Cruz, Calif.).
(§2) Inhibition of purified 20S proteasome activity by natural or synthetic GTPs. Purified prokaryotic (0.5 μg) or eukaryotic (0.02 μg) 20S proteasome was incubated with 20 μM fluorogenic peptide substrate, Suc-Leu-Leu-Val-Tyr-AMC for 30 min at 37° C. in […] of assay buffer (50 mM Tris-HCl, pH 7.5), with or without a natural or synthetic tea polyphenol. After incubation, production of hydrolyzed 7-amido-4-methyl-coumarin (AMC) groups was measured using a multi-well plate VERSAFLUOR Fluorometer with an excitation filter of 380 nm and an emission filter of 460 nm (BIO-RAD), and a multi-well plate reader Wallac 1420 VICTORTM^2 with an excitation filter of 355 nm and an emission filter of 460 nm (EG&G WALLAC).
Purified prokaryotic (0.5 μg) or eukaryotic (0.02 μg) 20S proteasome was incubated with 20 μM fluorogenic peptide substrate, Suc-Leu-Leu-Val-Tyr-AMC for 30 minutes at 37° C. in 100 μl of assay buffer ([…] Tris-HCl, pH 7.5), with or without a natural or synthetic tea polyphenol. After incubation, production of hydrolyzed AMC groups was measured using a multi-well plate VERSAFLUOR Fluorometer with an excitation filter of 380 nm and an emission filter of 460 nm.
(−)-EGCG at 1 μM was incubated with eukaryotic 20S proteasome (0.02 μg) and suc-LLVY-AMC (20 μM) for the times indicated in FIG. 7. The chymotrypsin activity was measured and graphed in FIG. 7. Values are means from 4 independent experiments, and error bars represent standard deviations.
In the second experiment (−)-EGCG at 1 μM was pre-incubated with (SDS-pre) or without 0.01% SDS (no SDS) for 1 hour, followed by addition of eukaryotic 20S proteasome (0.02 μg) and suc-LLVY-AMC (20 μM). “SDS-post” represents the same treatment as “no SDS” except 0.01% SDS was added 1 hour after addition of the proteasome, (−)-EGCG and the substrate. AMC liberation was measured by fluorescence at each indicated time point and the percentage of chymotrypsin activity was determined. Values are means from 4 independent experiments, and error bars represent standard deviations.

VA-13 cells = test: Western blot of p27 in SV40-transformed VA-13 fibroblasts; assay type: cell-based, human; conditions: 25 μM, 12 hours
Description: as §1
Normal WI-38 and SV40-transformed VA-13 cell lines were treated with 25 μM of (−)-EGCG, (−)-EGCG-amide, (+)-EGCG, (+)-EGCG-amide, or GTP-1 for either 12 hours or 36 hours.

LNCaP cells [3] = test: Soft agar colony formation assay; assay type: cell-based, human; conditions: 10 μM, 14 day-incubation
Description: Soft Agar Assay. The soft agar assay was performed according to Smith et al. (Smith, D. M. et al. Mol Med, 2002, 8:382-392) with a few modifications. In brief, in a six-well plate, a bottom feeder layer (0.6% agar) was prepared with DMEM media containing 10% fetal bovine serum, 100 units/ml penicillin, and 100 μg/ml streptomycin. A top layer (0.3% agar) was prepared with DMEM and the same media as described above but containing 2×10^4 prostate cancer LNCaP cells and indicated analogs or DMSO as a control. Plates were incubated at 37° C. in 5% CO2 in a humidified incubator for two weeks. MTT (1 mg/ml) was added to each well and incubated overnight to allow complete formation of purple formazan crystals. The plates were then scanned and photographed, and the number of colonies was quantified by QUANTITY ONE v.4.0.3 software (Bio-Rad, Hercules, Calif.).
The […] effects of several GTP analogs were investigated with a soft agar assay that measures the transforming activity of human tumor cells. LNCaP cells were plated in soft agar (see Materials and Methods) along with 50 μM of GTP-1, -2, -3, (−)-EGCG (as a positive control; Smith, D. M. et al. Mol Med, 2002, 8:382-392, 2002), or the solvent (as a negative control), followed by a 14 day-incubation to allow for colony formation (FIGS. 12A and 12B).
In a second experiment, LNCaP cells were plated in soft agar along with 10 μM of each indicated GTP or solvent (H2O), followed by a 14 day-incubation to allow for colony formation (FIG. 21A). […] Colonies were quantified with an automated counter and presented as mean values from triplicate independent experiments. Error bars denote standard deviations.

purified 20S proteasome [4] = biological target: purified 20S proteasome (UniProt Q9P992); test: Inhibition of chymotrypsin-like activity of purified 20S proteasome (source not stated); assay type: biochemical; design: other: 1 μM; other: 10 μM; conditions: 10 μM
Chain of purified 20S proteasome (UniProt Q9P992) (Q9P992 whole entry): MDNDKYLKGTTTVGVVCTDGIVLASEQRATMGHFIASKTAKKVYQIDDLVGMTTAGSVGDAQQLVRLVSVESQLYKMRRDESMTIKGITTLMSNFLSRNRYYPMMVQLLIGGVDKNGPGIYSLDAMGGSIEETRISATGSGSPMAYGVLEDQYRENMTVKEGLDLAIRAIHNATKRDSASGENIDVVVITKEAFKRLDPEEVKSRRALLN
Description: as §2

[5] = tested on: 26S proteasome in a Jurkat cell lysate; test: Chymotrypsin-like activity of 26S proteasome in Jurkat cell lysate; assay type: biochemical, human; conditions: 10 μM
Description: To determine the specificity of the synthetic GTP analogs, their effects were tested on the chymotrypsin-like and trypsin-like activities of the 26S proteasome in a Jurkat cell lysate. […] (+)-GCG at the same concentration inhibited ˜50% of the chymotrypsin-like activity. The potencies of (+)-EGCG and (+)-GCG were similar to those of their natural partners, respectively (FIG. 17A). […] Furthermore, none of the synthetic or control natural compounds could inhibit more than 15% of activity of a purified calpain enzyme (FIG. 17C). […] Values are mean triplicates and error bars denote standard deviations.

purified 20S proteasome [6] = test: Inhibition of chymotrypsin-like activity of purified 20S proteasome (source not stated); assay type: biochemical
Description: as §2

| SMILES | levels of p27, IκB-α and Bax (LNCaP cells [1]) | inhibition of proteasome activity / accumulation of p27 (MCF-7 cells) | IC50 [2] [nM] | levels of p27 protein (VA-13 cells) | inhibition of colony formation (LNCaP cells [3]) [%] | inhibition of proteasomal activity (purified 20S proteasome [4]) | inhibition of chymotrypsin-like activity of 26S proteasome [5] | inhibition of the proteasome (in words) (purified 20S proteasome [6]) | inhibition of the proteasome (in words) (purified 20S proteasome [6]; listed as benzyl protected-EGCG) |
| --- | --- | --- | --- | --- | --- | --- | --- | --- | --- |
| O=C(N[C@H]1Cc2c(O)cc(O)cc2O[C@H]1c1cc(O)c(O)c(O)c1)c1cc(O)c(O)c(O)c1 [(+)-EGCG-amide, (+)-[2S, 3S]-N-[5,7-Dihydroxy-2-(3,4,5-trihydroxyphenyl)-chroman-3-yl]-3,4,5-trihydroxybenzamide] | able to increase levels of p27, IκB-α and Bax by 3 hours | able to inhibit the proteasome activity | 405 | significantly increased levels of p27 protein |  |  |  |  |  |
| O=C(O[C@H]1Cc2c(OCc3ccccc3)cc(OCc3ccccc3)cc2O[C@H]1c1cc(OCc2ccccc2)c(OCc2ccccc2)c(OCc2ccccc2)c1)c1cc(OCc2ccccc2)c(OCc2ccccc2)c(OCc2ccccc2)c1 [Bn-(+)-EGCG] |  |  |  |  | ~10 | did not significantly inhibit | could not inhibit the proteasomal chymotrypsin activity at all | can not inhibit the proteasome | cannot inhibit the proteasome; also recorded: fails to inhibit the proteasome |
